Data from patent US20130231290A1, “METHODS OF DIAGNOSING AND TREATING NEURODEGENERATIVE DISEASES” (DIGNITY HEALTH, priority 2010, published 2013).

Experiments:
[1] = system: hippocampal slices prepared from 3×Tg-AD mice; experiment: CCh-induced network synchronization, field recordings in CA1 of hippocampal slices from 3×Tg-AD mice; assay type: cell-based, mouse; details: 3×Tg mice (10 month-old) compared to age-matched WT mice
[2] = system: hippocampal CA1 slices; experiment: CCh-induced network synchronization, field potential recordings in hippocampal CA1 slices from WT mice; assay type: cell-based, mouse; details: 50 μM bath-perfusion, mice 6 months old
Description: (§1) Comparing CCh-induced network synchronization in the hippocampal CA1 slices from WT and α7−/− mice (6 months old) using field potential recordings allowed testing of whether α7-nAChRs contribute to network synchronization and seizure susceptibility.

[3] = system: α7−/− slices; experiment: CCh-induced network synchronization, field potential recordings in hippocampal CA1 slices from α7−/− mice; assay type: cell-based, mouse; details: 50 μM, mice 6 months old
Description: as §1

[4] = target: T1, α7-containing-nAChRs in nAChR β2 subunit knockout mice (Mus musculus, UniProt P49582); assay type: cell-based
T1 construct: MS/DB neurons derived from nAChR β2 subunit knock-out mice; endogenous in cells; host or cells: acutely dissociated MS/DB neurons of nAChR β2 knockout mice (C57/Bl6 background)

[5] = target: α7β2-nAChRs on MS/DB cholinergic neurons (Rattus norvegicus, UniProt P12390+Q05941); experiment: Perforated-patch whole-cell recording of nAChR-mediated (choline/ACh-induced) currents in acutely dissociated MS/DB cholinergic neurons; assay type: cell-based
[6] = target: T2, homomeric α7-nAChRs on VTA DAergic neurons (Rattus norvegicus, UniProt Q05941); assay type: cell-based
T2 construct: native nAChR responses in rat MS/DB or VTA neurons; endogenous in cells; host or cells: acutely dissociated VTA dopaminergic neurons of Wistar rats

[7] = target: T3, heteromeric α7β2-nAChRs (Rattus norvegicus, UniProt P12390+Q05941); assay type: cell-based
T3 construct: expressed in transfected cells; host or cells: Xenopus laevis oocytes injected with cRNA (pGEMHE vector)

[8] = system: cultured hippocampal pyramidal neurons; experiment: Patch-clamp recording of neuronal excitability in cultured hippocampal neurons after chronic Aβ; assay type: cell-based, mouse; details: for neuronal excitability (spontaneous bursting AP firing, input-output curve): chronic exposure, treated vs untreated neurons
[9] = system: MS/DB neurons; experiment: Current-clamp recording of spontaneous action potential firing in dissociated MS/DB neurons; assay type: cell-based, rat; details: 1 μM
[10] = system: ionotropic glutamate receptors; experiment: Glutamate-induced currents in rat MS/DB cholinergic neurons; assay type: cell-based; details: 1 nM peptide; 1 mM glutamate
[11] = system: GABAA receptors; experiment: GABA-induced currents in rat MS/DB cholinergic neurons; assay type: cell-based; details: 1 nM peptide; 0.1 mM GABA
[12] = system: α7−/− hippocampal neurons; experiment: Aβ toxicity in α7−/− hippocampal neurons; assay type: cell-based, mouse; details: α7−/− compared to WT hippocampal neurons
[13] = target: T4, α7β2-nAChRs on MS/DB cholinergic neurons (Mus musculus, UniProt P49582+Q9ERK7); experiment: Choline-induced currents in MS/DB neurons from wild-type mice; assay type: cell-based; details: 1 nM
T4 construct: Compared to MS/DB neurons from WT mice; endogenous in cells; host or cells: acutely dissociated MS/DB neurons of wild-type C57/Bl6 mice

[14] = system: neurons from α7−/− mice; experiment: Neuronal excitability after chronic Aβ in cultured hippocampal neurons from α7−/− mice; assay type: cell-based, mouse; details: chronic exposure
Description: To further investigate whether pharmacological block of α7-nAChR eliminated the expression of neuronal hyperexcitation after chronic Aβ exposure. […] Comparing cultured neurons from WT and α7−/− mice could further establish if α7-nAChRs play a role in the induction of Aβ-induced neuronal hyperexcitation by comparing cultured neurons from WT and α7−/− mice.

[15] = system: cultured mouse hippocampal neurons; experiment: Aβ-induced degeneration of cultured hippocampal neurons (DAPI staining, LDH levels); assay type: cell-based
[16] = chronic Aβ, neurons from WT mice

Sequence of α7β2-nAChRs on MS/DB cholinergic neurons (Rattus norvegicus, UniProt P12390+Q05941) (Q05941 23-502): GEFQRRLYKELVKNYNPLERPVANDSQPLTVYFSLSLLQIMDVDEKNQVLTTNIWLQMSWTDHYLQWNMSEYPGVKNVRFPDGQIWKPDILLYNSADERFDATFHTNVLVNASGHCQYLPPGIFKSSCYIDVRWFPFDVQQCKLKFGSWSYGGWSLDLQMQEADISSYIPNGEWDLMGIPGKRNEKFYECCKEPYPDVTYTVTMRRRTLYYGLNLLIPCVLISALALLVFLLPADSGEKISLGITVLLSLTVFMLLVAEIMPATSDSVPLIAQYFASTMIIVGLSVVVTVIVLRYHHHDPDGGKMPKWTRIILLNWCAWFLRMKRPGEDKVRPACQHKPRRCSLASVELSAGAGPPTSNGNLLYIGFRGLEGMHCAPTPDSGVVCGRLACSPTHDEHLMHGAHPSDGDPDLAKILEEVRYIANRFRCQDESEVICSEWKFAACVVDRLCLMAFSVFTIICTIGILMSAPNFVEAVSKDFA
Sequence of α7β2-nAChRs on MS/DB cholinergic neurons (Rattus norvegicus, UniProt P12390+Q05941) (P12390 25-500): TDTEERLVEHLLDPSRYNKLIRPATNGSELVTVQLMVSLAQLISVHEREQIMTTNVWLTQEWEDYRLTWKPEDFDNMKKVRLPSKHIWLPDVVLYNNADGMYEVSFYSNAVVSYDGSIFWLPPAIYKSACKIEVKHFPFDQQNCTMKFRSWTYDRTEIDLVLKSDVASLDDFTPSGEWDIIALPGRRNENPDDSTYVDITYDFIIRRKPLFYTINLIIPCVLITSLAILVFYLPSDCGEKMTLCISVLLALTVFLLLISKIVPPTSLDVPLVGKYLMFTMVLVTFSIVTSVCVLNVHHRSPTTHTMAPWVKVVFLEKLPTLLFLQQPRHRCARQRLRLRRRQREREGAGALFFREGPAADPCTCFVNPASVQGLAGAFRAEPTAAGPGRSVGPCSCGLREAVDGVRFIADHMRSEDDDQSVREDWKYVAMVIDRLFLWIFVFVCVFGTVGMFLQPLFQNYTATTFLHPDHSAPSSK
T2 sequence (Q05941 23-502): as the sequence (Q05941 23-502) above
T1 sequence (P49582 23-502): as the sequence (Q05941 23-502) above, with A402T counted along it
T3 sequence (Q05941 23-502): as the sequence (Q05941 23-502) above
T3 sequence (P12390 25-500): as the sequence (P12390 25-500) above
T4 sequence (P49582 23-502): as the sequence (Q05941 23-502) above, with A402T counted along it
T4 sequence (Q9ERK7 26-501): as the sequence (P12390 25-500) above, with A350T, V371M, R379Q, T383A, P387L, V391M, V449I, P468S counted along it

How did the induced network synchronization [1] turn out when `C[N+](C)(C)CCOC(N)=O` [CCh, carbachol] was run?
The induced network synchronization was “much stronger network synchronization”.

What about the induced network synchronization [2] of the same compound?
Its induced network synchronization is “induced two types of network synchronizations”.

And the induced network synchronization [3]?
The induced network synchronization was “failed to induce θ-oscillations”.

How did the “antagonist sensitivity of choline-induced currents” value ([4]; MS/DB neurons from β2 knockouts compared with wild-type) turn out when `CO[C@H]1CC=C2CCN3CCC4=C(CC(=O)OC4)[C@]23C1` [DHβE, dihydro-β-erythroidine] was run?
The value was “lower sensitivity”.

And the “Hill coefficient of concentration-inhibition curve” value ([5]; 10 mM choline-induced currents, MS/DB neurons, n=8)?
The value was 0.9.

And the IC50 ([5]; 10 mM choline, MS/DB neurons, n=8, read-out: IC50 for inhibition of choline-induced currents)?
The IC50 was 0.17 µM.

What about the “potency difference as inhibitor of choline-induced current, MS/DB vs VTA neurons” value ([5]; printed as less potent in MS/BD than in VTA neurons) of the same compound?
The value was roughly 500 fold.

And the “Hill coefficient of concentration-inhibition curve” value ([6]; 10 mM choline-induced currents, VTA neurons)?
The value was 0.3.

And the IC50 ([6]; 10 mM choline, VTA neurons, n=7, read-out: IC50 for inhibition of choline-induced currents)?
Its IC50 is greater than 100 µM.

And the “sensitivity to functional blockade, α7β2-nAChR compared with homomeric α7-nAChR” value ([7]; 10 mM choline-induced currents in oocytes)?
The value was “more sensitive”.

Which “effect on enhanced neuronal excitation after chronic Aβ exposure” value ([8]; following a depolarizing pulse, MLA pretreated for 2 min, Aβ oligomers for 9 days) does the source give for `CCN1C[C@]2(COC(=O)c3ccccc3N3C(=O)C[C@H](C)C3=O)CC[C@H](OC)[C@@]34[C@@H]5C[C@H]6[C@H](OC)[C@@H]5[C@](O)(C[C@@H]6OC)[C@@](O)([C@@H](OC)[C@H]23)[C@@H]14` [MLA, methyllycaconitine] here?
The value was “reversibly eliminated”.

Which results are given for `CNCC/C=C/c1cccnc1` [RJR-2403]?
whole-cell current response to agonist [5]: insensitive; whole-cell current response to agonist [6]: mimicked

For `C[C@@H]1O[C@H](C[N+](C)(C)C)C[C@H]1O` [muscarine], which “sensitivity of spontaneous action potential firing” value [9] is on record?
Its value is “insensitive”.

For “Aβ1-42: amyloid beta peptides at positions 1-42 of the amyloid precursor protein (APP), purchased from rPeptide”, which “inhibition of glutamate-induced currents” value [10] is on record?
The value was “insensitive”.

And the “suppression of choline-induced currents” value [4]?
Its value is “failed to suppress”.

And the “inhibition of GABA-induced currents” value [11]?
Its value is “insensitive”.

And the “toxic effects on hippocampal neurons” value [12]?
The value was “did not show toxic effects”.

And the “effect on ACh-induced current” value [5]?
The value was “evident”.

What about the “effect on choline-induced currents” value [6] of the same compound?
The value was “not sensitive”.

What about the “sensitivity of choline-induced currents to peptide” value [7] of the same compound?
The value was “demonstrated sensitivity”.

And the “suppression of choline-induced currents” value [13]?
Its value is “did suppress”.

What about the “induction of neuronal hyperexcitation” value [14] of the same compound?
Its value is “failed to evoke neuronal hyperexcitation”.

And the “cytotoxicity by LDH levels” value ([15]; 100 nM for 4, 7 and 10 days, primary cultured hippocampal neurons)?
Its value is “increased LDH levels”.

What about the “loss of cultured hippocampal neurons (DAPI staining)” value ([15]; 100 nM over several days) of the same compound?
The value was “cell loss in an exposure-time-dependent manner”.

What about the sEPSC amplitude [8, 16] of the same compound?
The sEPSC amplitude was “but not amplitude”.

And the sEPSC frequency [8, 16]?
Its sEPSC frequency is “enhances sEPSC frequency”.

What about the “neuronal excitability (spontaneous bursting AP firing, input-output curve)” value [8] of the same compound?
Its value is “shifted leftwards”.

With “fibrillar Aβ: Aβ1-42 stock incubated at 37° C. for 48 h at pH 6.0, predominantly fibrillar form” as the compound, how does the “suppression of choline-induced responses by peptide form” value (“suppression … by peptide form” for short) [5] read?
Its value is “weaker inhibitory effect”.

And the “mean resting membrane potential of treated neurons” value ([8]; 10 days treatment, n=11, untreated −62.8±3.3 mV)?
The value was −53.4±2.6 mV.

And the “neuronal excitability (spontaneous bursting AP firing, input-output curve)” value [8]?
Its value is “spontaneous bursting AP firing was observed”.

With “monomeric Aβ1-42: Aβ1-42 reconstituted in DMSO, predominant monomeric form” as the compound, how does the “suppression … by peptide form” value [5] read?
The value was “failed to suppress”.

For “oligomeric Aβ1-42: Aβ1-42 reconstituted in distilled water, predominantly oligomeric form”, which “suppression … by peptide form” value [5] is on record?
Its value is “greatest suppression”.
